Target: T1, holocarboxylase synthetase (HLCS) (Homo sapiens, UniProt P50747)
T1 sequence (P50747 1-726): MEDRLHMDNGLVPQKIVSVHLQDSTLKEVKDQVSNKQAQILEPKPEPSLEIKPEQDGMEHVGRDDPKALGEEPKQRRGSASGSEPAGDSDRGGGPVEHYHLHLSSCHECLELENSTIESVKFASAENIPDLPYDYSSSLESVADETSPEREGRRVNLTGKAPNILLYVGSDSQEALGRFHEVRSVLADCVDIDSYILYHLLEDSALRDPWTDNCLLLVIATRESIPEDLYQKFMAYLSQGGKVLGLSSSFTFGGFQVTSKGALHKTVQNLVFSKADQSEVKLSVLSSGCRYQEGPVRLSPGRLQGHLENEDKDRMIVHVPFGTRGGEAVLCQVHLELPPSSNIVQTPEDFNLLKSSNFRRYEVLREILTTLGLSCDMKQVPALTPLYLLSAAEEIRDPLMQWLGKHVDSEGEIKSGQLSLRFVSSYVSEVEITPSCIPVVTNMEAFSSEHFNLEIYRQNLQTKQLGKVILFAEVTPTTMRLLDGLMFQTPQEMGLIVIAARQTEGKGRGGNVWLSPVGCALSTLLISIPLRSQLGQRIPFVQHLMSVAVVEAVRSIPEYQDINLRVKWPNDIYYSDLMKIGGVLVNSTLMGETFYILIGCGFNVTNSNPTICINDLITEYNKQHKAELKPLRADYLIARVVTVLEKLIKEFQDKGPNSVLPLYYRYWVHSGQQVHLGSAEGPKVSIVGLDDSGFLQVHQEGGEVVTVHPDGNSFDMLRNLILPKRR
Assay: gel-based p67 biotinylation assay with purified rHLCS, dose-response
Type: biochemical

Row | Structure (SMILES) | IC50 [µM]
1 | Oc1cc(O)cc(/C=C/c2ccc(O)c(O)c2)c1 [Piceatannol] | 0.28
2 | OC[C@H]1O[C@@H](Oc2cc(O)cc(/C=C/c3ccc(O)cc3)c2)[C@H](O)[C@@H](O)[C@@H]1O [Piceid] | 21.3 ± 0.014
3 | Oc1ccc(/C=C/c2cc(O)cc(O)c2)cc1 [Resveratrol] | 3.7 ± 0.0085
